Laboratory results taken from patent publication US20080220471A1, “Vectors and Methods Using Same” (Genentech, Inc., priority 2005, published 2008).
Entries after “also recorded” stand apart in the source; their conditions may differ.

Experiments:
tumor = conditions: Teicher et al. 2002; cited from earlier work
BRAF = BRAF knockdown in melanoma cell clones (immunoblot densitometry, quantitative PCR); type: cell-based, human; conditions: melanoma cell clones expressing inducible BRAF shRNA
Source text: FIG. 10: Inducible knockdown of BRAF expression prevents melanoma tumor growth. (A). Schematic representation of a retroviral vector for tetracycline/doxycycline-inducible synthesis of shRNA. The Tet-repressor is constitutively expressed from the β-actin promoter and H1 RNA polymerase III promoter-driven transcription is thereby repressed in the absence of Dox by binding of the TetR protein to the Tet-responsive element sequence located immediately downstream of the TATA box. Addition of Dox results in dissociation of the TetR protein and derepression of the shRNA transcriptional unit. TATA, TATA box; TRE, Tet-responsive element; TetR, Tet-repressor protein; IRES, internal ribosomal entry site; PURO, puromycin resistance gene; LTR, long terminal repeat. B. Experimental validation of BRAF knockdown in melanoma cell lines. […] Lysates were then analyzed by immunoblotting. […]
We generated stable cells that expressed the inducible shRNA retroviral vector shown in FIG. 10A (based on pHUSH-GW). […] In the uninduced state, cells expressing the inducible hairpins were not altered in their baseline growth properties and no discernable background expression could be detected (data not shown). […] BRAF knockdown was reversible and time-dependent, with the maximal mRNA depletion detected 2 days post induction and the corresponding protein depletion occurring at day 3.

LOX-IMVI tumors = assay: LOX-IMVI inducible shRNA subcutaneous xenograft; type: in vivo; conditions: for tumor growth: 2 mg/ml Dox plus 5% sucrose in drinking water, start at 100-150 mm^3
Method: (§1) Six- to 8-week-old female athymic nu/nu mice or scid-beige mice were purchased from Charles River Laboratories. To assay for BRAF role in subcutaneous tumor models, mice were injected in the right flank with either 3×10^6 human LOX-IMVI or 1×10^7 human A375 TASK121-shRNA containing cell clones in 200 μL phosphate-buffered saline (PBS). When tumors reached a mean volume of 100-150 mm^3 the mice with similarly sized tumors were grouped into treatment cohorts. Mice received 5% sucrose only or 5% sucrose plus 1-2 mg/ml doxycycline for control and knockdown cohorts, respectively. All water bottles were changed 3 times per week. Tumors were measured with calipers and mice weighed twice per week. Mice whose tumors reach 2000 mm^3 were euthanized. At the end of the dosing study, or as indicated, appropriate tumor samples were taken. Each treatment group consisted of 7-10 mice and results are presented as mean tumor volume ±standard deviation (FIGS. 10C-E).

[1] = tested on: A375M-luc/shRNA-BRAF cells; assay: A375M-luc systemic (metastatic) tumor model, survival and bioluminescence; type: in vivo, scid-beige mice; conditions: 1 mg/ml Dox in drinking water (Dox-mediated BRAF knockdown); i.v. 4×10^5 A375M-luc/shRNA-BRAF cells
Method: To evaluate the efficacy of TASK121 knockdown in this model, cohorts of mice with similarly increasing tumor burden were divided into treatment groups. Scid-beige mice were injected intraperitoneally with […] 200 mg/kg D-luciferin (Biotium, Hayward, Calif.) and anesthetized using isoflurane. During image acquisition in a light-tight box, the animal was maintained on isoflurane via nose cone, and body temperature was maintained using a warming pad. Bioluminescence images were acquired using a cooled intensified charge-coupled device camera in an in vivo imaging system (Xenogen, Alameda, Calif.). Image acquisition times were about 1 minute. Images were processed by co-registering a reference image with a thresholded bioluminescence data image.
For metastatic tumor models, female scid-beige mice were injected intravenously with 50 μL PBS containing 4×10^5 A375M-luc shRNA cell clones. Tumor progression was monitored by weekly bioluminescence imaging for luciferase and mice were monitored daily for survival. At least 9 mice were used for each cohort. […] This is a promising strategy to inhibit certain metastatic tumors.

A375 tumors = assay: A375 inducible shRNA subcutaneous xenograft; type: in vivo, athymic nu/nu mice; conditions: 2 mg/ml Dox in drinking water
Method: as §1

[2] = tested on: pGL3-mu-p53 (murine p53 sequences); assay: Luciferase-based transient co-transfection comparing shRNA and miRNA vectors against p53; type: cell-based; conditions: p53-1 sequence, higher transfection ratios
Source text: FIG. 15: Luciferase-based transient co-transfection experiments compared shRNA and miRNA inducible expression vector performance. A. Comparison of H1-shRNA and CMV-miR vectors corresponding to murine p53 sequences transfected at 7.5:1, 5:1 and 2.5:1 shRNA:pGL3-mu-p53. B. The removal of the EmGFP leader rendered miR-p53-1 non-functional at a co-transfection ratio of 10:1.
In order to compare the efficacy of shRNA versus miRNA design, two effective miRNAs directed against p53 were converted to H1-shRNAs by identifying the 21-22 nt active siRNA within the miRNA scaffold and then by converting these active siRNAs back to N19 shRNAs. In addition, we examined the effect of having a linker sequence upstream of the miRNA. The following oligonucleotides were used in this study: […]

TetR protein = assay: Western analysis of TetR protein expression in transiently transfected 293T cells; type: cell-based; conditions: transient transfection, compared to wildtype TetR coding sequence
Method: To confirm that codon optimization of the TetR coding region increased expression of the TetR protein, Western analysis was performed. Briefly, plasmids containing the retroviral backbone comprising either wild type TetR (WT) or the codon optimized TetR (OPT) were transiently transfected into 293T cells using lipofectin (commercially available from GIBCO-BRL, Gaithersburg, Md.). Cell lysates were prepared by addition of 50 mM HEPES pH 7.4, 100 mM NaCl, 50 mM NaF, 5 mM B-glycerophosphate, 2 mM EGTA, 1 mM Na vanadate, 1% TX100 to a cell pellet, resolved on a 4-12% acrylamide gel and transferred to a PVDF membrane. Membranes were sequentially probed with Mouse α-TetR (1:5000; MolBiTec) and Rabbit α-Tubulin-HRP (1:5000, Santa Cruz Biotech, Santa Cruz, Calif.). […] “Ev” signifies negative control using retroviral vector lacking a shRNA cassette.

[3] = tested on: pHUSH shGL3 clone B11 tumors; assay: Tumor volume of pHUSH shGL3 clone B11 tumors at each Dox concentration; type: in vivo, mice; conditions: luciferase-targeting shRNA
Method: FIG. 6: (A) The relative change in mean bioluminescence at each time point and treatment condition (n=5 mice per doxycycline dose). […] In addition to the luciferase expression analysis, tumor volume measurements were recorded for the pHUSH shGL3 clone B11 at each concentration of doxycycline.
To determine whether Dox or shRNA expression influenced tumor growth in vivo, tumor volume measurements were recorded for the tumors at each concentration of Dox.

Molecule: Cl.Cn1cc(C2=C(c3cn(C4CCN(Cc5ccccn5)CC4)c4ccccc34)C(=O)NC2=O)c2ccccc21 [317615-HCL]
- anti-tumor effect (tumor): anti-tumor effect

Molecule: C[C@H]1c2cccc(O)c2C(=O)C2=C(O)[C@]3(O)C(=O)C(C(N)=O)=C(O)[C@@H](N(C)C)[C@@H]3[C@@H](O)[C@@H]21 [Dox, 1-dimethylamino-2,4-a,5,7,12-pentahydroxy-11-methyl-4,6-dioxo-1,4a,11,11a,12,12a-hexahydrotetracene-3-carboxamide]
- Dox IC50 for suppression of BRAF protein levels (BRAF): approximately 5 ng/ml
- body weight between treatment groups (LOX-IMVI tumors; 2 mg/ml Dox plus 5% sucrose vs 5% sucrose): no difference in body weight
- lethality or weight loss (LOX-IMVI tumors; 2 mg/ml Dox via drinking water, LOX-IMVI and A375 xenograft experiments): No lethality or weight loss was observed
- lower threshold for in vivo expression of the shRNA (LOX-IMVI tumors; pHUSH vector system, drinking water): ~0.02 mg/mL
- median survival [1]: 33.4 days

B1: GFP control shRNA: EGFP shRNA (SEQ ID NO:17/18) control hairpin in pHUSH (nucleic acid)
sense: GATCCCCAGATCCGCCACAACATCGATTCAAGAGATCGATGTTGTGGCGGATCTTGTTTTTTGGAAA
antisense: AGCTTTTCCAAAAAACAAGATCCGCCACAACATCGATCTCTTGAATCGATGTTGTGGCGGATCTGGG
- tumor growth (A375 tumors): no discernable effect on tumor growth; also recorded: did not affect tumor growth kinetics

B2: H1-shRNA-p53-1: H1 promoter N19 shRNA converted from the p53-1 miRNA (nucleic acid)
DNA: GATCCCCAGTACGTGCACATAACAGACTTTCAAGAGAAGTCTGTTGTGCACGTACTTTTTTTGGAAA
- knockdown compared to CMV-miR [2]: slight increase in knockdown

B3: codon optimized TetR: TetR coding region codon optimized for mammalian expression (SEQ ID NO:1) (nucleic acid)
DNA: ATGTCCAGACTGGATAAGTCCAAGGTGATTAATTCCGCTCTGGAACTCCTGAACGAGGTCGGCATCGAGGGACTGACCACACGGAAGCTGGCTCAGAAACTCGGCGTCGAACAGCCTACCCTCTACTGGCATGTCAAAAATAAGAGAGCCCTCCTGGACGCCCTGGCTATCGAGATGCTGGACAGACACCACACCCACTTCTGCCCCCTGGAAGGCGAATCCTGGCAGGATTTCCTCCGGAACAACGCTAAAAGCTTTAGATGCGCCCTCCTCAGCCATAGAGACGGAGCTAAAGTGCACCTGGGAACCCGGCCTACAGAAAAACAGTACGAGACACTGGAAAACCAGCTCGCTTTCCTCTGCCAACAAGGCTTTAGCCTGGAAAACGCCCTCTACGCTCTCAGCGCTGTCGGCCATTTTACACTGGGCTGCGTGCTCGAGGACCAGGAGCACCAAGTGGCTAAAGAGAGCGGGAAACCCCTACCACCGATAGCATGCCCCCCCTGCTGAGACAAGCCATTGAGCTCTTTGATCATCAGGGAGCTGAACCCGCCTTCCTCTTTGGACTCGAACTCATTATTTGCGGACTCGAGAAGCAACTGAAATGCGAAAGCGGAAGCGCCTACTCCGGCTCCAGAGAATTTCGGTCCTACTAG
modifications: Codon-optomized TetR
- expression of the TetR protein (TetR protein): significantly increased expression of the TetR protein

B4: Luciferase control shRNA: shRNA targeting the luciferase coding region (SEQ ID NO:9 / 15) in pHUSH (nucleic acid)
sense: GATCCCCCTTACGCTGAGTACTTCGATTCAAGAGATCGAAGTACTCAGCGTAAGTTTTTTGGAAA
antisense: AGCTTTTCCAAAAAACTTACGCTGAGTACTTCGATCTCTTGAATCGAAGTACTCAGCGTAAGGGG
- influence on tumor growth in vivo (tumor volume) [3]: does not influence tumor growth in vivo
- tumor growth (LOX-IMVI tumors): did not affect tumor growth kinetics
- tumor growth (LOX-IMVI tumors; listed as control shRNA directed against Luciferase): continued to increase in size
